Assay results published in article PMC11751439, “Targeting SRSF1 improves cancer immunotherapy by dually acting on CD8^+T and tumor cells” (Signal Transduction and Targeted Therapy, 2025).

Tests used:
[1] = molecular target: T1, SRSF1 (recombinant SRSF1; serine arginine-rich splicing factor 1) (Homo sapiens, UniProt Q07955); assay: SPR (Biacore T100); assay type: binding
T1 construct: recombinant purified SRSF1; RRM1 domain targeted in screening

[2] = molecular target: T1, SRSF1 (recombinant SRSF1; serine arginine-rich splicing factor 1); assay: SPR; assay type: binding; conditions: purified SRSF1 variant; unit inferred, M taken from the wild-type value

T1 sequence (Q07955 2-248): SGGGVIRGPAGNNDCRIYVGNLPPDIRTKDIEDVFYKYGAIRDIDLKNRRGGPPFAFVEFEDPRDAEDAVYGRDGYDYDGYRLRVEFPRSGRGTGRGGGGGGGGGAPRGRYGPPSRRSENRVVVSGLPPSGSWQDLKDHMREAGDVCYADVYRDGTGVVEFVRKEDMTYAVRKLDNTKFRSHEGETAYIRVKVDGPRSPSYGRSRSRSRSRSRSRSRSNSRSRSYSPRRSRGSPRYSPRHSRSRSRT

Work on O=C(/C=C/c1ccc(O)c(O)c1)c1ccc(O)c(O)c1O [TN2008] yielded a Kd [1] of 5.13 µM and a Kd [2] of 37.2 µM.
